Measured values: patent US7579323B1, “Hemiasterlin analogs” (The University of British Columbia, priority 1997, dated 2009)
Counter-ions that a name gives are not always drawn. Like-named read-outs stand apart in the source and are kept apart here.

Assays:
[1] = test system: p53+ and p53− variants of human breast cancer MCF-7 cells and A549 tumor cells; assay: Assay for cytotoxicity (J. Immunol. Methods 65:55-63), SPA-110 compared to hemiasterlin; type: cell-based; settings: MCF-7 p53+ and p53− and A549 cells; FIGS. 5A and 5B; naturally occurring compound = hemiasterlin
Procedure: Cytotoxicity of SPA-110 compared to hemiasterlin as against p53+ and p53− variants of human breast cancer MCF-7 cells and A549 tumor cells was determined according to the methods described in J. Immunol. Methods 65:55-63 (1983).

[2] = test system: MCF-7 mp53− cells; assay: Assay for antimitotic activity, ELISA with mitosis-specific antibody TG-3; type: cell-based, human; settings: 20 hours incubation, FIG. 6, naturally occurring compound = hemiasterlin
Procedure: Antimitotic activity is detected by enzyme-linked immunosorbent assay using a mitosis-specific antibody, TG-3 (from Albert Einstein College of Yeshiva University, Bronx, N.Y.; and see: PCT application published Jul. 4, 1996 under WO96/20218).
MCF-7 mp 53^− cells (expressing a dominant-negative p53 mutation as described in S. Fan, et al. […] Cancer Research 55:1649-1654) were cultured as monolayers in DMEM supplemented with 10% fetal bovine serum, 2 mM L-glutamine, 50 units/ml penicillin, 50 μg/ml streptomycin, 1 mM sodium pyruvate, MEM non-essential amino acids, 1 μg/ml bovine insulin, 1 μg/ml hydrocortisone, 1 ng/ml human epidermal growth factor, and 1 ng/ml β-estradiol at 37° C. in humidified 5% CO2. The cells were seeded at 10,000 cells per well of 96-well polystyrene tissue culture plates (Falcon) in a volume of 200 μl cell culture medium. The cells were allowed to grow for 24 hours and compounds were added at about 1 μg/ml or 10 μg/ml (from 1000-fold stocks in dimethylsulfoxide) and the cells were incubated for 20 hours. Nocodazole (Sigma) served as a positive control. […] 100 μl of 120 mM Na2HPO41 100 mM citric acid, pH 4.0 containing 0.5 mg/ml 2,2′-azino-bis(3-ethylbenzthiazoline-6-sulfonic acid) and 0.01% hydrogen peroxide was added for 1 hour at room temperature and the plates were read at 405 nm using a BioTek plate reader.

[3] = test system: human colon carcinoma LOVO; type: in vivo, Athymic nu/nu female mice; settings: for % T/C day 7 / % T/C day 14 / % T/C day 21 / % T/C day 28: LOVO xenograft, SPA-110 intravenously, Vincristine intraperitoneally, p≦0.05; for % T/C day 7: day 7 post staging; for % T/C day 14: day 14 post staging; for % T/C day 21: day 21 post staging; for % T/C day 28: day 28 post staging
Procedure: The compound SPA-110 was evaluated in vivo using standard pharmacological test procedures which measure its ability to inhibit the growth of human tumor xenografts. The human colon carcinoma LOVO (American Type Culture Collection, Rockville, Md. #CCL-229) was grown in tissue culture in RPMI supplemented with 10% FBS. Athymic nu/nu female mice (Charles River, Wilmington, Mass.) were injected sub-cutaneously in the flank area with 7.0×10^6 LOVO cells. When tumors attained a mass of between 80 and 120 mg, the mice were randomized into treatment groups (day zero). Animals were treated intravenously once a day on days 1, 5, and 9 post staging (day zero) with 1 mg/kg/dose of SPA-110 prepared in 2.5% ethanol in saline or with saline as the vehicle control. Some animals were treated intraperitonealy once a day on days 1, 5 and 9 post staging with 1 mg/kg/dose Vincristine as a positive control. Tumor mass was determined every 7 days [(length×width^2)/2] for 28 days post staging. RTG or relative tumor growth (Mean tumor mass on days 7, 14, 21 and 28 divided by the mean tumor mass on day zero) was determined for each treatment group. % T/C was calculated as RTC (treated group) % RTC (vehicle control group)×100. Statistical analysis (Student-t-test) of log relative tumor growth was used to compare treated verses control group in each experiment. A p-value (p≦0.05), which indicates a statistically significant reduction in relative tumor growth, was obtained in each case. 5 of 5 animals treated at day 28 with SPA-110 survived. 9 of 10 animals treated at day 28 with vincristine survived.

Compound	Cytotoxicity compared to hemiasterlin [1]	Antimitotic activity compared to hemiasterlin [2]	Animals surviving at day 28 ([3]; LOVO xenograft mice, day 28, 1 mg/kg/dose on days 1, 5, 9)	% T/C day 7 ([3]; 1 mg/kg/dose on days 1, 5, 9) [%]	% T/C day 14 ([3]; 1 mg/kg/dose on days 1, 5, 9) [%]	% T/C day 21 ([3]; 1 mg/kg/dose on days 1, 5, 9) [%]	% T/C day 28 ([3]; 1 mg/kg/dose on days 1, 5, 9) [%]	Animals surviving at day 28 ([3]; female, athymic nu/nu, mouse, in vivo, 1 mg/kg, 28 days)
CN[C@H](C(=O)NC(C(=O)N(C)C(/C=C(\C)C(=O)O)C(C)C)C(C)(C)C)C(C)(C)c1ccccc1 (stereo in doubt) [SPA-110, SPA 110-trifluoroacetate salt]	more cytotoxic in some instances than the naturally occurring compound	considerably greater antimitotic activity than the naturally occurring compound	5 of 5	16	18	30	47	
CC[C@]1(O)C[C@H]2CN(CCc3c([nH]c4ccccc34)[C@@](C(=O)OC)(c3cc4c(cc3OC)N(C=O)[C@H]3[C@@](O)(C(=O)OC)[C@H](OC(C)=O)[C@]5(CC)C=CCN6CC[C@]43[C@@H]65)C2)C1 [Vincristine, reference compound]				34	37	44	47	9 of 10
